From patent US20120115798A1, “METHOD FOR IMPROVING THE IMMUNITY OF A COMPANION ANIMAL” (priority 2010, published 2012)

Tests used:
Format in all cases: in vivo, dog (Labrador Retrievers)
8-OHdG = experiment: Serum 8-OHdG ELISA (DNA oxidation) in dogs fed mannoheptulose diet
Description: 8-Oxo-2′-deoxyguanosine (8-OHdG) is an oxidized derivative of deoxyguanosine. 8-OHdG is one of the major products of DNA oxidation. As part of the immune response, T and B cells must proliferate (become activated and divide). A key step to robust proliferation is DNA replication. If cells have damaged DNA or must repair DNA, this crucial step can be hindered. […] By lowering DNA damage in the mannoheptulose fed dogs, immune cell replication would be facilitated, helping to enable a key step in the activation cascade of the immune system. Eighty (n=80) Labrador Retrievers were randomized by age, gender, and littermate to receive either a complete and nutritionally balanced control diet that is similar to Eukanuba Senior Large Breed or an experimental diet that is identical to the control diet except for the inclusion of mannoheptulose as disclosed below. The dogs were split into two study groups. Study 1: A total of 39 older Labrador Retrievers are fed a nutritionally-balanced composition providing mannoheptulose at levels of 0 or about 2 mg/kg of body weight of the dog. […] Amount of 8-OHDG is quantified using a commercially available ELISA kit from Oxis Health Products, catalog #21026. […] Add […] of the Stop Solution, mix, wait 3 minutes and read the absorbance at 450 nm.

T cells = experiment: Lymphocyte blastogenesis (3H-thymidine), T cell mitogenic stimulation of PBMCs from dogs fed mannoheptulose diet
Description: (§1) Phytohaemagglutinin (PHA), the lectin extract from the red kidney bean (Phaseolus vulgaris), contains potent, T-cell mitogenic activity (Hammerstrom, S. et al. (1982) Proc. Nall. Acad. Sci. USA 79, 1611-1615). Pokeweed mitogen (PWM), derived from Phytolacca Americana, is a B cell mitogen (Schreck et al., Annals of Clinical and Laboratory Science, Vol 12, Issue 6, 455-462). Together these three mitogens are used to stimulate immune cells in vitro in the lymphocyte blastogenesis assay, a well accepted indicator of immune response in vivo. Many studies have shown this assay to be responsive to the age-associated decline in immune system response (Goldrosen et al., 1977—Journal of surgical oncology 9: 229-234). A lower proliferative capacity indicates the immune cells cannot become activated and multiply as efficiently (a key step in the process of mounting an effective immune response).
(§2) Eighty (n=80) Labrador Retrievers were randomized by age, gender, and littermate to receive either a complete and nutritionally balanced control diet that is similar to Eukanuba Senior Large Breed or an experimental diet that is identical to the control diet except for the inclusion of mannoheptulose as disclosed below. The dogs were split into two study groups.
Study 1: A total of 39 older Labrador Retrievers are fed a nutritionally-balanced composition providing mannoheptulose at levels of 0 or about 2 mg/kg of body weight of the dog. Average age of the dogs (12 neutered males, 27 spayed females) at the start of a 4-year study is 6.7 years with a range of 5.1 to 8.2 years of age for the youngest and oldest dog within the cohort, respectively. The control composition is fed as a nutritionally-balanced composition, and it contains no mannoheptulose (0 mg/kg), avocado extract, avocado meal, or avocado concentrate. The test composition is the nutritionally-balanced control composition formulated with avocado extract, avocado meal, or avocado concentrate to provide mannoheptulose at a dose of about 2 mg/kg body weight of the dog. […]

CD18+ immune cells = experiment: Flow cytometry of CD18+ immune cells in blood of dogs fed mannoheptulose diet; conditions: for CD18+ immune cells: analyzed by age
Description: Eighty (n=80) Labrador Retrievers were randomized by age, gender, and littermate to receive either a complete and nutritionally balanced control diet that is similar to Eukanuba Senior Large Breed or an experimental diet that is identical to the control diet except for the inclusion of mannoheptulose as disclosed below. The dogs were split into two study groups. Study 1: A total of 39 older Labrador Retrievers are fed a nutritionally-balanced composition providing mannoheptulose at levels of 0 or about 2 mg/kg of body weight of the dog. Average age of the dogs (12 neutered males, 27 spayed females) at the start of a 4-year study is 6.7 years with a range of 5.1 to 8.2 years of age for the youngest and oldest dog within the cohort, respectively. The control composition is fed as a nutritionally-balanced composition, and it contains no mannoheptulose (0 mg/kg), avocado extract, avocado meal, or avocado concentrate. The test composition is the nutritionally-balanced control composition formulated with avocado extract, avocado meal, or avocado concentrate to provide mannoheptulose at a dose of about 2 mg/kg body weight of the dog. Older dogs are fed one-half their daily allotment of food at 0730 and 1430 each day. Dogs were fed to maintain body weight and body composition score (BCS) within a 2-4 score range. If food adjustments were made, they were made on a quarterly basis. All dogs were fasted overnight and morning meals were withheld until blood collections could be conducted for all immune measurements. Water is provided ad lib. Study 2: A total of 41 younger Labrador Retrievers are fed a nutritionally-balanced composition providing mannoheptulose at levels of 0 or about 2 mg/kg of body weight of the dog. Average age of the dogs (12 neutered males, 29 spayed females) at the start of the 36-month feeding study is 4.0 years with a range of 2.0 to 6.1 years of age for the youngest and oldest dog within the cohort, respectively. […] Cell populations were analyzed on a FACScan Flow Cytometer (Becton Dickinson) using CellQuest Pro Software.

B cells = experiment: Lymphocyte blastogenesis (3H-thymidine), B cell mitogenic stimulation of PBMCs from dogs fed mannoheptulose diet
Description: as §1
as §2, with “groups. […]” for “groups.”

[1] = summary table, aging dogs consuming diet with MH, direction of change

## O=C(CO)[C@@H](O)[C@@H](O)[C@H](O)[C@H](O)CO [mannoheptulose]
8-OHdG; dog group 1, mannoheptulose diet vs control diet, FIG. 9
  serum 8-OHdG: significantly lower serum 8-OHdG
8-OHdG; [1]
  DNA damage: ↓
T cells; dog groups 1 and 2, mannoheptulose diet about 2 mg/kg vs control diet, FIGS. 3 and 4
  T cell mitogenic stimulation to ConA: either a statistical trend or a statistical improvement in T cell mitogenic stimulation to ConA
T cells; dog groups 1 and 2, mannoheptulose diet about 2 mg/kg vs control diet, FIGS. 5 and 6
  T cell mitogenic stimulation to PHA: either a statistical trend or a statistical improvement in T cell mitogenic stimulation to PHA
T cells; [1]
  T cell proliferation: ↑
CD18+ immune cells; dog group 1 (older dogs), test diet delivering 2 mg mannoheptulose per kg body weight vs diet matched controls, FIG. 1
  CD18+ immune cells: significant attenuation in the increase of CD18+ immune cells
CD18+ immune cells; dog group 2 (younger dogs), test diet with mannoheptulose about 2 mg/kg vs diet matched controls, FIG. 2
  CD18+ immune cells: trend for attenuation in the increase of CD18+ immune cells
CD18+ immune cells; [1]
  % CD18 + cells: ↓
B cells; dog groups 1 and 2, mannoheptulose diet about 2 mg/kg vs control diet, FIGS. 7 and 8
  B cell mitogenic stimulation to PWM: either a statistical trend or a statistical improvement in B cell mitogenic stimulation to PWM
B cells; [1]
  B cell proliferation: ↑
